The values that follow come from patent US10919899B2, “Imidazopyrazine compounds, preparation methods and uses thereof” (DONGGUAN ZHENXING-BEITE MEDICINE TECHNOLOGY CO., LTD., priority 2017, dated 2021).

Bounds are passed on as bounds.

Data set [1] relates to HCC827 NSCLC cell. Put plainly: Tumor cell proliferation inhibition assay (CellTiter-Glo), HCC827. It is filed as cell-based. The settings on record: Homo sapiens, 72 hours, 10% fetal calf serum, read-out: HCC827 anti-proliferative IC50 level. As to the method: (§1) Cell viability was evaluated by measuring a content of triphosadenine (ATP) by using CellTiter-Glo luminescent cell viability assay kit method (Promega, # G7572, Madison, Wis.). Diffuse large B cell lymphoma cell strain TMD-8 and HCC827 NSCL cell strains are purchased from Shanghai Fudan IBS Cell Center and American Type Culture Collection (ATCC). After the cells were digested from a cell culture dish by pancreatin and re-suspended by DPBS culture medium, a Scepter automatic cell counter (Millipore, # PHCC00000) was used for counting to measure a cell density. The cells were diluted to be a solution containing 44,000 cells per milliliter. The cell solution with the adjusted density was added into a cell assay plate with 90 μl per well. The well plate was placed to an incubator with 5% CO2 at 37° C. to be incubated for 24 hours and then added with the compound to be tested with different concentrations. The cells and the compound were together incubated for 72 hours in the presence of 10% fetal calf serum. The content of ATP was measured by using CellTiter-Glo® Luminescent Cell Viability Assay kit (referring to manufacturer's instruction) to evaluate the inhibition to the cell growth. Briefly speaking, each well was added with 30 μl of CellTiter-Glo® reagent, the plate was shaken for 10 minutes to induce the cells to be lysed, and fluorescence signal was detected and recorded by fluorescencelchemiluminescence analyzer Fluoroskan Ascent FL (Thermo Scientific Fluoroskan Ascent FL). The maximal signal value was obtained from cells processed by dimethyl sulfoxide (DMSO) for 72 or 120 hours. The minimal signal value obtained from separate culture medium (wherein the number of cells was zero) was defined as 0. Inhibition ratio %=(maximal signal value-compound signal value)/(maximal signal value−minimal signal value)×100%. The data was processed by using GraphPad Prism V5.0 (GraphPad Software San Diego, Calif.) software. IC50 value was fitted and calculated via S-shaped dose-response curve.
(In general: ATP-based viability assays read luminescence as a measure of living cells.)

Data set [2] addresses BTK (Homo sapiens (Human), UniProt Q06187). The data set can be described thus: BTK kinase activity inhibition assay (Caliper mobility shift). It is filed as biochemical. The settings on record: ATP 90 μM, read-out: BTK IC50 level. The method, then:
Activity of BTK protein kinase was tested by Caliper mobility shift assay (referring to J Biomol Screen 14:31, 2009). The compound of the present disclosure was dissolved in DMSO and then diluted 10-fold with kinase buffer solution (50 mM HEPES-pH 7.5, 0.0015% Brij-35, 10 mM MgCl2, 2 mM DTT). […] 10 μl of a substrate solution of a substrate FAM-labeled SRCtide peptide (Biochem, Cat. No. 112394) and ATP (90 μM) with 2.5-fold final reaction concentration was further added to start the reaction. Then incubation was performed for 10 minutes at room temperature. After incubation for 1 hour 28° C., 25 μl of stopping solution (100 mM HEPES, pH 7.5, 0.015% Brij-35, 0.2% Coating Reagent #3, 50 mM EDTA) was added to terminate the reaction. The conversion ratio data was read on Caliper EZ Reader II (Caliper Life Sciences). The inhibition ratio was calculated and the calculation formula is: inhibition ratio %=(max-conversion)/(max-min)×100 %.

Data set [3] relates to Diffuse large B cell lymphoma cell strain TMD-8. The data set can be described thus: Tumor cell proliferation inhibition assay (CellTiter-Glo), TMD-8. It is filed as cell-based. To be noted: Homo sapiens, TMD8; 72 hours, 10% fetal calf serum; read-out: TMD-8 anti-proliferative IC50 level. As to the method:
as §1

The nature of data set [4]: Pharmacokinetic (PK) assay in rats. The settings on record: male SD rat, 20 mg/kg oral. It is filed as in vivo, rat. The method, then: A male SD rat with 250-300 g of weight was fasted overnight before the assay. The compound to be tested was dissolved in 30% sulfobutyl ether-β-cyclodextrin (SBE-β-CD) and intragastrically administrated to the rat by 20 mg/kg of dosages. Take blood at 15th minute, 30th minute, and 1st, 2nd, 3rd, 4th, 6th, 8th, and 24th hours after the administratation, and about 0.3 mL of blood was taken at each time point. The blood samples were placed into centrifuge tubes containing K2-EDTA (dipotassium ethylene diamine tetraacetate) and plasma was taken via centrifugal treatment (2,000 g, 10 minutes, 4° C.) and stored in a −80° C. of ultra low temperature refrigerator. 50 μL of plasma sample was mixed with 50 μL of internal standard (IS) and extracted with ethyl acetate. After vacuum dried, the residue was re-dissolved in acetonitrile The sample was filtered and injected into LC-MS/MS to be analyzed.

The target of data set [5] is Txk (h) (Homo sapiens (Human), UniProt P42681). Put plainly: Txk activity inhibition assay (radioactive protein kinase method, Eurofins). It counts as biochemical. To be noted: Km ATP, radiometric. The method, then:
The inhibitory activities of the compound to Tec, Txk, and ITK of human were performed by Eurofins Pharma Discovery Services UK Limited (UK) of the United Kingdom. In the case of Km ATP, the radioactive protein kinase method was adopted by the test. The kinase was diluted with buffer solution (20 mM MOPS, 1 mM EDTA, 0.01% Brij-35, 5% Glycerol, 0.1% […], 1 mg/mL BSA) before the reaction. The compound was dissolved in 100% DMSO and was of 50-fold final reaction concentration.
TxK reaction solution contained 8 mM MOPS pH 7.0, 0.2 mM EDTA, 250 μM […], 10 mM magnesium acetate, and [γ-^33P]-ATP (about 500 cpm/pmol), 200 μM ATP-Mg was added, after mixing, the reaction was started, the incubation was performed for 40 minutes at room temperature, and 3% phosphoric acid solution was added to terminate the reaction, 10 μl (reaction solution) was placed on P30 filtration membrane, washed with 75 mM phosphoric acid for 5 minutes, and dried with methanol for one time, and then scintillation counting was performed.

Chain of BTK (Q06187 whole entry): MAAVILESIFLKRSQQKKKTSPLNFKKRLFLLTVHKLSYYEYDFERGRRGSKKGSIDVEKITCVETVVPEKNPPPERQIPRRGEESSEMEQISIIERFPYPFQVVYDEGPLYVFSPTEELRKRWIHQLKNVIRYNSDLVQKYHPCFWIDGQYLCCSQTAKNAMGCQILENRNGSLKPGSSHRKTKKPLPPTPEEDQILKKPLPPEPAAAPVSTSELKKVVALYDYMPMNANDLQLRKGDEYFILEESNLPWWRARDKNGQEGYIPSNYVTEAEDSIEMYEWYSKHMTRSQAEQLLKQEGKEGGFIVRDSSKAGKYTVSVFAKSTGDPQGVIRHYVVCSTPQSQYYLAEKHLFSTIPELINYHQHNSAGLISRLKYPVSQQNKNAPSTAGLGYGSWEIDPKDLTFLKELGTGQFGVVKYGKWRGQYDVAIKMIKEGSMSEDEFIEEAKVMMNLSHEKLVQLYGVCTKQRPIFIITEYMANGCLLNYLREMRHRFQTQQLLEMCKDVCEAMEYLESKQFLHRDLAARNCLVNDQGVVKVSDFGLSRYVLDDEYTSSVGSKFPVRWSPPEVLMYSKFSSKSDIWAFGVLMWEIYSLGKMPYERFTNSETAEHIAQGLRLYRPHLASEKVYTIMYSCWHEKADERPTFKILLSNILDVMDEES
Chain of Txk (h) (P42681 whole entry): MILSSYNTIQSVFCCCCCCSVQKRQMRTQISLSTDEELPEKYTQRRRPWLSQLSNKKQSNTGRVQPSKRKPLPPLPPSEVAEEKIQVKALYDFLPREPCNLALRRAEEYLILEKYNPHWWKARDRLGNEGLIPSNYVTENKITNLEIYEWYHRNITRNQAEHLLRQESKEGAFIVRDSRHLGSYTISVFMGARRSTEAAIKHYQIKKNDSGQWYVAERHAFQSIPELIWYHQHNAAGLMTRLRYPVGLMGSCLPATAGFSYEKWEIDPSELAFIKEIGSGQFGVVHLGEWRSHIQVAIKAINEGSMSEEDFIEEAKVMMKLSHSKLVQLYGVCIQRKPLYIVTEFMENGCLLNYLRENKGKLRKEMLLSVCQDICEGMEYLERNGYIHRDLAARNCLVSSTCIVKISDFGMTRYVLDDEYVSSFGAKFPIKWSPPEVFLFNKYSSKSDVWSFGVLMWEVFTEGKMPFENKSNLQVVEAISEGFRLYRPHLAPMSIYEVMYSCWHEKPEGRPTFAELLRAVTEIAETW

By IC50 is commonly meant the concentration that inhibits the measured activity by half. With `CC#CC(=O)N1CCC[C@H]1c1nc(-c2ccc(OCc3ccc(C(F)(F)F)cc3)cc2)c2c(N)nccn12` [Compound 2, (S)-1-(2-(8-amino-1-(4-((4-(trifluoromethyl)benzyl)oxy)phenyl)imidazo[1,5-a]pyrazin-3-yl)pyrrolidin-1-yl)but-2-yn-1-one], the figures for the IC50 in data set [1], in data set [2] and in data set [3] were 1000 to 10000 nM, > 750 nM and 100 to 500 nM, respectively.

On to `C=CC(=O)N1CCC[C@H]1c1nc(-c2ccc(OCc3ccccn3)cc2)c2c(N)nccn12` [Compound 29, (S)-1-(2-(8-amino-1-(4-(pyridin-2-ylmethoxy)phenyl)imidazo[1,5-a]pyrazin-3-yl)pyrrolidin-1-yl)prop-2-en-1-one], for which the IC50 in data set [1] was 1000 to 10000 nM; in data set [2], 100 to 300 nM; in data set [3], ≤ 100 nM.

Turning to `CC#CC(=O)N1CCC[C@H]1c1nc(-c2ccc(OCc3ccc(F)cc3)cc2)c2c(N)nccn12` [Compound 3, (S)-1-(2-(8-amino-1-(4-((4-fluorobenzyl)oxy)phenyl)imidazo[1,5-a]pyrazin-3-yl)pyrrolidin-1-yl)but-2-yn-1-one], the IC50 in data set [1] is > 10000 nM; in data set [2] it was > 750 nM; in data set [3], 100 to 500 nM.

As to `CC#CC(=O)N1CCC[C@H]1c1nc(-c2ccc(OCc3cc(F)ccn3)cc2)c2c(N)nccn12` [Compound 6, (S)-1-(2-(8-amino-1-(4-((4-fluoropyridin-2-yl)methoxy)phenyl)imidazo[1,5-a]pyrazin-3-yl)pyrrolidin-1-yl)but-2-yn-1-one], the IC50 in data set [1] was > 10000 nM; in data set [2] it was > 750 nM; in data set [3] it was 100 to 500 nM.

On to `CC#CC(=O)N1CCC[C@H]1c1nc(-c2ccc(OCCc3ccccc3)cc2)c2c(N)nccn12` [Compound 17, (S)-1-(2-(8-amino-1-(4-phenethoxyphenyl)imidazo[1,5-a]pyrazin-3-yl)pyrrolidin-1-yl)but-2-yn-1-one], for which the IC50 in data set [2] is 300 to 750 nM.

Turning to `C=CC(=O)N1CCC[C@H]1c1nc(-c2ccc(OCc3ccccc3)nc2)c2c(N)nccn12` [Compound 25, (S)-1-(2-(8-amino-1-(6-(benzyloxy)pyridin-3-yl)imidazo[1,5-a]pyrazin-3-yl)pyrrolidin-1-yl)prop-2-en-1-one], the IC50 is > 10000 nM in data set [1], ≤ 100 nM in data set [2] and ≤ 100 nM in data set [3].

The AUC(0-inf) is the area under the concentration-time curve extrapolated to infinity. Read a low AUC(0-inf) as less exposure. In general, Cmax refers to the highest concentration seen after dosing. Broadly, the half-life is the time needed for the level to fall by half in the phase considered. Read a high half-life as slow loss. Compound `CC#CC(=O)N1CCC[C@H]1c1nc(-c2ccc(C(=O)Nc3ccccn3)cc2)c2c(N)nccn12` [ACP-196, Acalabrutinib, reference compound] yielded a t1/2 in data set [4] of 7.9 h. In addition, the AUC(0-inf) in data set [4] (plasma) turned out to be 1400 ng·h/mL. For the same compound, the peak level in data set [4] (plasma) (Cmax) was 668 ng/mL. In data set [4] (plasma), this compound showed a half-life of 7.9 h. Besides, in data set [4] (plasma, read-out: AUC0-24), the AUC(0-t) came to 1300 ng·h/mL. The values for the IC50 in data set [1], in data set [5] and in data set [3] were > 10000 nM, 5000 nM and ≤ 100 nM, respectively.

Turning to `CC#CC(=O)N1CCC[C@H]1c1nc(-c2ccc(OCc3ccccc3)nc2)c2c(N)nccn12` [Compound 9, (S)-1-(2-(8-amino-1-(6-(benzyloxy)pyridin-3-yl)imidazo[1,5-a]pyrazin-3-yl)pyrrolidin-1-yl)but-2-yn-1-one], in data set [2], the IC50 is > 750 nM.

Turning to `C=CC(=O)N1CCC[C@H]1c1nc(-c2ccc(OCc3ccccc3)cc2)c2c(N)nccn12` [Compound 21, (S)-1-(2-(8-amino-1-(4-(benzyloxy)phenyl)imidazo[1,5-a]pyrazin-3-yl)pyrrolidin-1-yl)prop-2-en-1-one], the values for the IC50 in data set [1], in data set [2] and in data set [3] were > 10000 nM, ≤ 100 nM and ≤ 100 nM, respectively.

On to `CC#CC(=O)N1CCC[C@H]1c1nc(-c2ccc(OCc3ccccn3)cc2)c2c(N)nccn12` [Compound 5, (S)-1-(2-(8-amino-1-(4-(pyridin-2-ylmethoxy)phenyl)imidazo[1,5-a]pyrazin-3-yl)pyrrolidin-1-yl)but-2-yn-1-one], for which the IC50 in data set [2] lay in the range of 300 to 750 nM.
